{PalmAG} = palmitoyl amide conjugated through an aminoglycerol linker to the 5'-thiophosphate; {PalmN} = palmitoyl amide conjugated through the terminal 3'-amino group; [NPS] = N3'→P5' thiophosphoramidate internucleoside linkage; {NH2} = amino group
Legend:
Assay type in all cases: cell-based
MOLM-13 cells [1] = test: Annexin V / Propidium Iodide flow cytometry apoptosis assay in MOLM-13; design: key to Excess over BLISS: Excess over Bliss = C−[(A+B)−(A*B)], % apoptotic cells; key to Excess over HSA: excess = combination minus HSA/Bliss expected, in % apoptotic cells; conditions: for Loewe Excess: MOLM-13, 48 hour treatment, ABT-199 nM: r7 1000, r8 500, r9 100, r10 20, r11 5, r12 1, r13 0.2, r14 0.04, r15 0; for Excess over BLISS / Excess over HSA: ABT-199 0 nM, r7 Mismatch 50 μM, r8 Mismatch 25 μM, r9 Non-complimentary 50 μM, r10 Non-complimentary 25 μM
KG-1 cells = test: Annexin V / Propidium Iodide flow cytometry apoptosis assay in KG-1; design: key to Excess over HSA / Excess over BLISS: excess in % apoptotic (Annexin V/PI double-labeled) cells over HSA/Bliss; conditions: ABT-199 0 nM, r7 Mismatch 50 μM, r8 Mismatch 25 μM, r9 Non-complimentary 50 μM, r10 Non-complimentary 25 μM
Method: (§1) AML tumor cells KG-1 (ATCC #CCL-246) and MOLM-13 (DSMZ #ACC554) were plated at a density of ˜20,000 cells per well on 96-well polystyrene U-bottom tissue culture plates (Corning catalog #353777) in RPMI-1640 (ThermoFisher catalog #11875-085) supplemented with 10% fetal bovine serum (ThermoFisher catalog #16140-089) and 1% penicillin/streptomycin antibiotic cocktail (ThermoFisher catalog 15140-122) and grown in a 37° C. incubator under humidified 5% CO2 atmosphere.
(§2) At 48 and 96 hours, cells were measured for healthy, early apoptotic and apoptotic populations with an Annexin V (interior cell membrane stain) plus Propidium Iodide (PI, DNA binding dye) flow cytometry assay kit (BioLegend catalog 640914). Annexin V detects the externalization of phosphatidylserine in apoptotic cells using recombinant annexin V conjugated to green-fluorescent FITC dye and dead cells using Propidium iodide (PI). Propidium iodide stains necrotic cells with red fluorescence. After treatment with both probes, early apoptotic cells show green fluorescence, apoptotic (dead) cells show red and green fluorescence, and live cells show little or no fluorescence. […] Cells were stained for 30 minutes at 4° C. in the dark, followed by 3× washes with PBS and suspension in FACs Stain Buffer (BD catalog 554657) prior to interrogation on a BD FACs Canto flow cytometer for forward scatter, side scatter, FITC, and PE channels. […] The percentage of apoptotic cells (double labeled) was used to calculate combination effects using both the Highest Single Agent (HSA) and Bliss additivity models (J Tang et al. Frontiers in Pharmacology. 2015; 6 (181)).
(§3) Using the HSA model, the cytotoxic effect of the combined condition (“C”) was compared to the effect generated by each of the single agent controls (“A” or “B”) for the respective dose in the combination: Excess over HSA=C−A (if A>B) or C−B (if A<B)
(§4) The Bliss model performs a similar comparison, but instead of the highest effect of single agent, the Bliss model subtracts from the combination a value equal to the sum of each single agent minus their product: Excess over Bliss=C−[(A+B)−(A*B)]

MOLM-13 cells [2] = test: Annexin V / Propidium Iodide flow cytometry apoptosis assay in MOLM-13; design: key to Excess over HSA / Excess over BLISS: excess = combination minus HSA/Bliss expected, in % apoptotic cells; conditions: for Loewe Excess: ABT-199 nM: r7 1000, r8 500, r9 100, r10 20, r11 5, r12 1, r13 0.2, r14 0.04, r15 0; for Excess over HSA: MOLM-13, 96 hours, ABT-199 0 nM, r7 Mismatch 50 μM, r8 Mismatch 25 μM, r9 Non-complimentary 50 μM, r10 Non-complimentary 25 μM
Method: as §1, §2, §3, §4
Treated cells were analyzed by Flow cytometry for Annexin V and Propidium Iodide staining as described previously. Events gated in the apoptotic population (Annexin V+/Propidium Iodide+) were used to determine synergy scores for the combination matrix. Combination data analysis was generated by the Horizon Chalice™ Analyzer Software (Horizon Discovery Group, Cambridge, UK). […] Mismatch and non-complimentary controls were not utilized in this experiment.
Combination conditions undergo isobolar analysis to generate a combination index and graphically represent the behavior of a combination with synergistic pairs falling below the isobologram and antagonistic falling above it (additive combinations would be expected to fall on the line). The Horizon Chalice™ Analyzer Software additionally provides a synergy score, with values greater than 1 indicating synergy.

## Mismatch: control oligonucleotide 5′-R-TAGGTGTAAGCAA-NH2-3′ (SEQ ID NO: 2), palmitoyl amide conjugated NPS-linked oligonucleotide (all [NPS], 5' {PalmAG}, 3' {NH2}, sugars by position and methylation of C not given here)
MOLM-13 cells [1]; Mismatch 10 μM
  Loewe Excess: −1
MOLM-13 cells [1]; MOLM-13, 48 hours
  Excess over BLISS: 0
  Excess over HSA: 0
MOLM-13 cells [1]; MOLM-13, 96 hours
  Excess over BLISS: 0
KG-1 cells; KG-1, 48 hours
  Excess over BLISS: 0
  Excess over HSA: 0
KG-1 cells; KG-1, 96 hours
  Excess over BLISS: 0
  Excess over HSA: 0
MOLM-13 cells [2]; MOLM-13, 48 hour treatment, Mismatch 1 μM
  Loewe Excess: 4
MOLM-13 cells [2]; MOLM-13, 48 hour treatment, Mismatch 5 μM
  Loewe Excess: 2
MOLM-13 cells [2]; MOLM-13, 48 hour treatment, Mismatch 25 μM
  Loewe Excess: 1
MOLM-13 cells [2]; MOLM-13, 48 hour treatment, Mismatch 50 μM
  Loewe Excess: 0
MOLM-13 cells [2]; MOLM-13, 48 hour treatment, Mismatch 75 μM
  Loewe Excess: 0
MOLM-13 cells [2]; MOLM-13, 96 hour treatment, Mismatch 1 μM
  Loewe Excess: 1
MOLM-13 cells [2]; MOLM-13, 96 hour treatment, Mismatch 5 μM
  Loewe Excess: 0
MOLM-13 cells [2]; MOLM-13, 96 hour treatment, Mismatch 10 μM
  Loewe Excess: −1
MOLM-13 cells [2]; MOLM-13, 96 hour treatment, Mismatch 25 μM
  Loewe Excess: −2
MOLM-13 cells [2]; MOLM-13, 96 hour treatment, Mismatch 50 μM
  Loewe Excess: −1
MOLM-13 cells [2]; MOLM-13, 96 hour treatment, Mismatch 75 μM
  Loewe Excess: 1
MOLM-13 cells [2]
  Excess over HSA: 0

## Non-complimentary: control oligonucleotide 5′-AACAGATTGGGAT-R-3′ (SEQ ID NO: 3), palmitoyl amide on the terminal 3′ amino group of an NPS oligonucleotide (all [NPS], 3' {PalmN}, sugars by position and methylation of C not given here)
MOLM-13 cells [1]; Non-Complimentary 5 μM
  Loewe Excess: −1
MOLM-13 cells [1]; Non-Complimentary 25 μM
  Loewe Excess: −1
MOLM-13 cells [1]; MOLM-13, 48 hours
  Excess over BLISS: 0
  Excess over HSA: 0
MOLM-13 cells [1]; MOLM-13, 96 hours
  Excess over BLISS: 0
KG-1 cells; KG-1, 48 hours
  Excess over BLISS: 0
  Excess over HSA: 0
KG-1 cells; KG-1, 96 hours
  Excess over BLISS: 0
  Excess over HSA: 0
MOLM-13 cells [2]; MOLM-13, 48 hour treatment, Non-Complimentary 1 μM
  Loewe Excess: 6
MOLM-13 cells [2]; MOLM-13, 48 hour treatment, Non-Complimentary 10 μM
  Loewe Excess: −2
MOLM-13 cells [2]; MOLM-13, 48 hour treatment, Non-Complimentary 50 μM
  Loewe Excess: −2
MOLM-13 cells [2]; MOLM-13, 48 hour treatment, Non-Complimentary 75 μM
  Loewe Excess: 1
MOLM-13 cells [2]; MOLM-13, 96 hour treatment, Non-Complimentary 1 μM
  Loewe Excess: 1
MOLM-13 cells [2]; MOLM-13, 96 hour treatment, Non-Complimentary 5 μM
  Loewe Excess: 0
MOLM-13 cells [2]; MOLM-13, 96 hour treatment, Non-Complimentary 10 μM
  Loewe Excess: −1
MOLM-13 cells [2]; MOLM-13, 96 hour treatment, Non-Complimentary 25 μM
  Loewe Excess: −1
MOLM-13 cells [2]; MOLM-13, 96 hour treatment, Non-Complimentary 50 μM
  Loewe Excess: −1
MOLM-13 cells [2]; MOLM-13, 96 hour treatment, Non-Complimentary 75 μM
  Loewe Excess: 1
MOLM-13 cells [2]
  Excess over HSA: 0

Reference: patent US11278561B2, “Combination treatment for hematological cancers” (Geron Corporation, priority 2016, dated 2022)
